# Measured values reported in patent US20100010022A1, “CANCER TREATMENT METHOD” (SmithKline Beecham Corporation, priority 2004, published 2010).
# Marks after values point to notes of the source that are not given here.
# Tests used:
# [1] = system: BT474 (human breast tumor line); experiment: BT474 subcutaneous human xenograft mouse model, tumor growth; format: in vivo, SCID mice; details: for tumor growth inhibition: monotherapy, FIG. 1, range over doses
# Description: The BT474 xenografts were maintained by serial transplantation of tumor fragments in SCID mice. Tumors are initiated by injection of tumor fragments subcutaneously in the axillary region.
# (§1) For the xenograft models used here, solid tumors were measured by electronic caliper measurement through the skin. Measurements were typically made twice weekly.
# Drugs were administered by P.O. route. […] These studies were performed under IACUC #468 and 603. The results are illustrated in Tables 1-4, and FIGS. 1 and 2. FIGS. 1 and 2 are the graphical representation of the data contained in Tables 3 and 4, respectively.
# The column labeled “Exp. 1” contains the results presented in FIG. 1 for the last data point on the graph. The column labeled “Exp. 2” contains analogous results from an independent experiment. Data are presented as percent inhibition of tumor growth, as compared to vehicle.
# [2] = system: NCI-H322 (non-small cell lung carcinoma); experiment: NCI H322 subcutaneous human xenograft mouse model, tumor growth; format: in vivo, SCID mice; details: for tumor growth inhibition: monotherapy, FIG. 2, range over doses
# Description: NCI H322 cells obtained from the ATCC and were cultured in RPMI 1640+10% Fetal bovine serum, Sodium pyruvate and L-Glutamine at […] in a 95/5% air/CO2 atmosphere. Cells were harvested following trypsin digestion and brought to a density of 2×10^6 cells/200 μl in PBS. Tumors were initiated by injection of the cell suspension subcutaneously in the axillary region. In addition some experiments were performed following serial transplantation of tumor fragments in SCID mice. Tumors were initiated by injection of tumor fragments subcutaneously in the axillary region.
# as §1
# Drugs were administered by P.O. route. […] These studies were performed under IACUC #468 and 603.
# Data are presented as percent inhibition of tumor growth, as compared to vehicle.
# [3] = Exp. 1, Example 1 30 mg/kg P.O. once daily
# [4] = Exp. 1, Example 1 100 mg/kg P.O. once daily
# [5] = Exp. 2, Example 1 30 mg/kg P.O. once daily
# [6] = Exp. 2, Example 1 100 mg/kg P.O. once daily
# [7] = Exp. 1, Example 3 60 mg/kg P.O. once daily
compound,measurement,setting,value
"Cc1ccc(Nc2nccc(N(C)c3ccc4c(C)n(C)nc4c3)n2)cc1S(N)(=O)=O [Example 1, 5-({4-[(2,3-dimethyl-2H-indazol-6-yl)(methyl)amino]pyrimidin-2-yl}amino)-2-methylbenzenesulfonamide]",Mean tumor volume,"[1]; Day 36, Ex. 1 30 mg/kg",281 mm^3
same,Mean tumor volume,"[1]; Day 36, Ex. 1 100 mg/kg",293 mm^3
same,Mean tumor volume,"[1]; Day 38, Ex. 1 30 mg/kg",406 mm^3
same,Mean tumor volume,"[1]; Day 38, Ex. 1 100 mg/kg",417 mm^3
same,Mean tumor volume,"[1]; Day 41, Ex. 1 30 mg/kg",481 mm^3
same,Mean tumor volume,"[1]; Day 41, Ex. 1 100 mg/kg",453 mm^3
same,Mean tumor volume,"[1]; Day 44, Ex. 1 30 mg/kg",601 mm^3
same,Mean tumor volume,"[1]; Day 44, Ex. 1 100 mg/kg",519 mm^3
same,Mean tumor volume,"[1]; Day 49, Ex. 1 30 mg/kg",722 mm^3
same,Mean tumor volume,"[1]; Day 49, Ex. 1 100 mg/kg",519 mm^3
same,Mean tumor volume,"[1]; Day 52, Ex. 1 30 mg/kg",777 mm^3
same,Mean tumor volume,"[1]; Day 52, Ex. 1 100 mg/kg",515 mm^3
same,Mean tumor volume,"[1]; Day 55, Ex. 1 30 mg/kg",860 mm^3
same,Mean tumor volume,"[1]; Day 55, Ex. 1 100 mg/kg",496 mm^3
same,Mean tumor volume,"[1]; Day 57, Ex. 1 30 mg/kg",954 mm^3
same,Mean tumor volume,"[1]; Day 57, Ex. 1 100 mg/kg",513 mm^3
same,"percent inhibition of tumor growth, as compared to vehicle",[1]; [3],16%
same,"percent inhibition of tumor growth, as compared to vehicle",[1]; [4],78* %
same,"percent inhibition of tumor growth, as compared to vehicle",[1]; [5],47* %
same,"percent inhibition of tumor growth, as compared to vehicle",[1]; [6],64* %
same,tumor growth inhibition,[1],16-78%
same,Mean tumor volume,"[2]; Day 29, Ex. 1 30 mg/kg",182 mm^3
same,Mean tumor volume,"[2]; Day 29, Ex. 1 100 mg/kg",166 mm^3
same,Mean tumor volume,"[2]; Day 34, Ex. 1 30 mg/kg",351 mm^3
same,Mean tumor volume,"[2]; Day 34, Ex. 1 100 mg/kg",268 mm^3
same,Mean tumor volume,"[2]; Day 37, Ex. 1 30 mg/kg",358 mm^3
same,Mean tumor volume,"[2]; Day 37, Ex. 1 100 mg/kg",266 mm^3
same,Mean tumor volume,"[2]; Day 41, Ex. 1 30 mg/kg",329 mm^3
same,Mean tumor volume,"[2]; Day 41, Ex. 1 100 mg/kg",316 mm^3
same,Mean tumor volume,"[2]; Day 44, Ex. 1 30 mg/kg",309 mm^3
same,Mean tumor volume,"[2]; Day 44, Ex. 1 100 mg/kg",312 mm^3
same,Mean tumor volume,"[2]; Day 48, Ex. 1 30 mg/kg",377 mm^3
same,Mean tumor volume,"[2]; Day 48, Ex. 1 100 mg/kg",297 mm^3
same,Mean tumor volume,"[2]; Day 51, Ex. 1 30 mg/kg",389 mm^3
same,Mean tumor volume,"[2]; Day 51, Ex. 1 100 mg/kg",313 mm^3
same,"percent inhibition of tumor growth, as compared to vehicle",[2]; [3],34%
same,"percent inhibition of tumor growth, as compared to vehicle",[2]; [4],56* %
same,"percent inhibition of tumor growth, as compared to vehicle",[2]; [5],20%
same,"percent inhibition of tumor growth, as compared to vehicle",[2]; [6],62%
same,"percent inhibition of tumor growth, as compared to vehicle","[2]; Exp. 3, Example 1 30 mg/kg P.O. once daily",86* %
same,"percent inhibition of tumor growth, as compared to vehicle","[2]; Exp. 3, Example 1 100 mg/kg P.O. once daily",88* %
same,tumor growth inhibition,[2],86-88%
"CS(=O)(=O)CCNCc1ccc(-c2ccc3ncnc(Nc4ccc(OCc5cccc(F)c5)c(Cl)c4)c3c2)o1 [Example 3, N-{3-Chloro-4-[(3-fluorobenzyl)oxy]phenyl}-6-[5-({[2-(methanesulphonyl)ethyl]amino}methyl)-2-furyl]-4-quinazolinamine]",Mean tumor volume,"[1]; Day 36, Ex. 3 60 mg/kg",235 mm^3
same,Mean tumor volume,"[1]; Day 36, Ex. 3 200 mg/kg",219 mm^3
same,Mean tumor volume,"[1]; Day 38, Ex. 3 60 mg/kg",328 mm^3
same,Mean tumor volume,"[1]; Day 38, Ex. 3 200 mg/kg",262 mm^3
same,Mean tumor volume,"[1]; Day 41, Ex. 3 60 mg/kg",367 mm^3
same,Mean tumor volume,"[1]; Day 41, Ex. 3 200 mg/kg",184 mm^3
same,Mean tumor volume,"[1]; Day 44, Ex. 3 60 mg/kg",485 mm^3
same,Mean tumor volume,"[1]; Day 44, Ex. 3 200 mg/kg",242 mm^3
same,Mean tumor volume,"[1]; Day 49, Ex. 3 60 mg/kg",554 mm^3
same,Mean tumor volume,"[1]; Day 49, Ex. 3 200 mg/kg",288 mm^3
same,Mean tumor volume,"[1]; Day 52, Ex. 3 60 mg/kg",633 mm^3
same,Mean tumor volume,"[1]; Day 52, Ex. 3 200 mg/kg",270 mm^3
same,Mean tumor volume,"[1]; Day 55, Ex. 3 60 mg/kg",763 mm^3
same,Mean tumor volume,"[1]; Day 55, Ex. 3 200 mg/kg",219 mm^3
same,Mean tumor volume,"[1]; Day 57, Ex. 3 60 mg/kg",878 mm^3
same,Mean tumor volume,"[1]; Day 57, Ex. 3 200 mg/kg",214 mm^3
same,"percent inhibition of tumor growth, as compared to vehicle",[1]; [7],21%
same,"percent inhibition of tumor growth, as compared to vehicle","[1]; Exp. 1, Example 3 200 mg/kg P.O. once daily",99* %
same,"percent inhibition of tumor growth, as compared to vehicle","[1]; Exp. 2, Example 3 60 mg/kg P.O. once daily",58* %
same,"percent inhibition of tumor growth, as compared to vehicle","[1]; Exp. 2, Example 3 200 mg/kg P.O. once daily",85* %
same,tumor growth inhibition,[1],21-99%
same,Mean tumor volume,"[2]; Day 29, Ex. 3 20 mg/kg",167 mm^3
same,Mean tumor volume,"[2]; Day 29, Ex. 3 60 mg/kg",175 mm^3
same,Mean tumor volume,"[2]; Day 34, Ex. 3 20 mg/kg",288 mm^3
same,Mean tumor volume,"[2]; Day 34, Ex. 3 60 mg/kg",252 mm^3
same,Mean tumor volume,"[2]; Day 37, Ex. 3 20 mg/kg",403 mm^3
same,Mean tumor volume,"[2]; Day 37, Ex. 3 60 mg/kg",313 mm^3
same,Mean tumor volume,"[2]; Day 41, Ex. 3 20 mg/kg",511 mm^3
same,Mean tumor volume,"[2]; Day 41, Ex. 3 60 mg/kg",400 mm^3
same,Mean tumor volume,"[2]; Day 44, Ex. 3 20 mg/kg",616 mm^3
same,Mean tumor volume,"[2]; Day 48, Ex. 3 20 mg/kg",837 mm^3
same,Mean tumor volume,"[2]; Day 48, Ex. 3 60 mg/kg",577 mm^3
same,Mean tumor volume,"[2]; Day 51, Ex. 3 20 mg/kg",871 mm^3
same,Mean tumor volume,"[2]; Day 51, Ex. 3 60 mg/kg",649 mm^3
same,"percent inhibition of tumor growth, as compared to vehicle",[2]; [7],75* %
same,"percent inhibition of tumor growth, as compared to vehicle","[2]; Exp. 2, Example 3 20 mg/kg P.O. once daily",31%
same,"percent inhibition of tumor growth, as compared to vehicle","[2]; Exp. 3, Example 3 20 mg/kg P.O. once daily",28%
same,"percent inhibition of tumor growth, as compared to vehicle","[2]; Exp. 3, Example 3 60 mg/kg P.O. once daily",54%
same,tumor growth inhibition,[2],28-54%
